According to patent US7413894B2, “TAG-1 and TAG-2 proteins and uses thereof” (University of Virginia Patent Foundation, priority 2003, dated 2008):

Experiments:
[1] = system: C1R-A3 targets for lysis by VMM18 CTL; assay: CTL epitope reconstitution assay (four-hour 51Cr-release); type: cell-based; details: active at concentrations as low as
Method: VMM18-specific CTL have been described previously (Skipper et al., 1996, J Immunol 157, 5027-5033). CTL were expanded in bulk culture using anti-CD3 antibody (Greenberg and Cheever, 1985, Surv Immunol Res 4, 283-296) and cryopreserved in aliquots of 1-5×10^7 cells for use in epitope reconstitution assays.
Aliquots of each RP-HPLC fraction were tested for the presence of peptides that could sensitize C1R-A3 targets for lysis by VMM18 CTL in standard four-hour 51Cr-release assays as previously described (Hogan et al., 1998, Cancer Res 58, 5144-5150).

[2] = molecular target: T1, class I MHC molecule, HLA-A3 (Homo sapiens, UniProt P04439); assay: Isolation of HLA-A3 associated peptides (immunoaffinity purification from VMM18 tumor cells); type: binding
T1 construct: endogenous in cells; host or cells: VMM18 melanoma tumor cells
T1 sequence (P04439 25-365): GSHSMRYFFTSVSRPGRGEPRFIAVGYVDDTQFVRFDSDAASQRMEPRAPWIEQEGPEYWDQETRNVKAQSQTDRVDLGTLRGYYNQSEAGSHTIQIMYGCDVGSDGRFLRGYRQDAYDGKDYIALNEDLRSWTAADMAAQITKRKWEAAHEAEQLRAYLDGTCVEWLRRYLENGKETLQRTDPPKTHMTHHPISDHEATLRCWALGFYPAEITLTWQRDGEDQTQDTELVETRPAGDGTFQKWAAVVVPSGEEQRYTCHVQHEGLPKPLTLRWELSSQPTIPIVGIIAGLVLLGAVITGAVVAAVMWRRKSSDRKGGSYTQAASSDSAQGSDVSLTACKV
T1 sequence (P61769 21-119 partner): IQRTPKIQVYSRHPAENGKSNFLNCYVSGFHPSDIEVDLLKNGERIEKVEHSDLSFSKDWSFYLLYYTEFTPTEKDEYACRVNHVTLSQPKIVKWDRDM
Method: Immunoaffinity purification of class I MHC molecules from aliquots of 6-8×10^10 VMM18 tumor cells was performed as described (Hogan et al., 1998, Cancer Res 58, 5144-5150), except that the HLA-A3-specific monoclonal antibody GAP-A3, bound to protein A-Sepharose, was used to isolate the HLA-A3 molecules.
Peptide extracts were fractionated by RP-HPLC using an Applied Biosystems model 140B system. The extracts were concentrated by vacuum centrifugation and injected onto a Higgins (Mountain View, Calif.) C18 HAISIL column (2.1 mm×4 cm, 300 Å, 5 μm). The peptides were eluted with a gradient of acetonitrile/0.085% trifluoroacetic acid (TFA)* in 0.1% TFA/water, with the concentration of acetonitrile increasing from 0 to 9% (0 to 5 min), 9 to 36% (5 to 55 min), and 36 to 60% (55 to 62 min). Second dimension fractionations of selected first dimension (TFA) fractions were accomplished using the same gradient but with the substitution of heptafluorobutyric acid (HFBA) for TFA. A third dimension of RP-HPLC was achieved using an Eldex (Napa, Calif.) MicroPro pump, a homemade C18 microcapillary column and an Applied Biosystems model 785A UV absorbance detector. The column was made by packing a 27-cm bed of 10-μm C18 particles in a section of 285 μm o.d.×75 μm i.d. fused silica. […] In all RP-HPLC experiments, peptides were detected by monitoring UV absorbance at 214 nm.

Sequence | concentration at which the synthetic peptide is active in sensitizing C1R-A3 targets for lysis by VMM18 CTL [1] [pM] | binding to HLA-A3 [2]
RLSNRLLLR (listed as Homo sapiens) | ≤ 10 | binds to the class I MHC molecule, HLA-A3
SQNFPGSQK (listed as Homo sapiens) | ≤ 10 | –
